Values joined by “and” are separate entries in the source; they are usually repeats but may differ in a detail not shown here. Equal entries are not always repeated.

For series [1], the system named is rabbit eye (anterior chamber paracentesis). Put plainly: Clinical evaluation by slit lamp (clinical score), rabbit paracentesis model. The class given is in vivo. Set-up: key to Clinical Score −180 min / Clinical Score −5 min / Clinical Score +115 min: 0=normal; 1=discrete dilatation of iris and conjunctival vessels; 2=moderate dilatation of iris and conjunctival vessels; 3=intense iridal hyperemia with flare in the anterior chamber; 4=intense iridal hyperemia with flare in the anterior chamber and presence of fibrinous exudates. To be noted: 0.1% topical.

For series [2], the system named is New Zealand White rabbits. The series is described as follows: Intraocular pressure (IOP) in rabbits, topical dosing four times daily. The class given is in vivo. Particulars: 0.1% (Group A). The procedure:
Seventy-five rabbits underwent two weeks of IOP training to condition them for IOP measurement. IOP was determined for both eyes of each animal using a Medtronic Solan, Model 30 classic pneumatonometer. Proparacaine hydrochloride 0.5% (1 drop) was delivered to each eye prior to IOP measurement. A two-point diurnal curve was established: IOP was recorded on Monday, Wednesday, and Friday of each week, at 8 a.m. and 12 p.m., with a ±1 hour range for each of these times. The time of the measurements was recorded.
On Days 1-31, animals received daily topical doses of the appropriate test article into the right eye. Animals were dosed four times per day, with doses administered 2 hours apart. Doses were administered using a calibrated 50-μL pipette. The eyelids were held close for 10 seconds immediately following dosing. The time of each dose administration was recorded.
Intraocular pressure (“IOP”) was determined for both eyes of each animal on Days 3, 5, 10, 12, 16, 18, 22, 24, 26, 30, and 32. IOP was evaluated with a Medtronic Solan, Model 30 classic pneumatonometer. Proparacaine hydrochloride 0.5% (1 drop) was delivered to each eye prior to IOP measurement. IOP was measured on Monday, Wednesday, and Friday of each week. A two-point diurnal curve was established: IOP was recorded at 8 a.m. and 12 p.m. on Day 3, and at 8 a.m. and 2 p.m. on later days, with a ±1 hour range for each of these times. The time of the measurements was recorded.
Descriptive statistics were prepared for IOP data of each treatment group (left and right eyes separately) at each measurement interval. The statistics included the number of observations (“N”), mean, standard deviation (“STD”), and standard error (“SEM”). Statistical analyses were conducted on IOP results using Statistical Analysis Systems (SAS Institute, Inc., Cary, N.C., V8.0). Parameters were evaluated using analysis of variance/GLM Procedure followed by Tukey's Standardized Range Test (Tukey, 1985) for post hoc comparisons of group means. The level of significance was set at a probability of p<0.05 for all statistical procedures. Group IOP means were compared at each interval, with left and right eyes compared separately.

Consider `C[C@@H]1C[C@H]2[C@@H]3CCC4=CC(=O)C=C[C@]4(C)[C@@]3(F)[C@@H](O)C[C@]2(C)[C@@]1(O)C(=O)CO` [dexamethasone, reference compound], for which the “Clinical Score −5 min” value in series [1] (5 min before the first paracentesis, single eyes, listed as Dex) was 0 and 1. For the same compound, the “Clinical Score +115 min” value in series [1] (5 min before the second paracentesis, single eyes, listed as Dex) was 1 and 3. Also, the “Percentage of eyes with clinical score 1” value was found to be 75% in series [1] (+115 min, N=8 eyes) and 25% in series [1] (−5 min, N=8 eyes). For the same compound, in series [1] (+115 min, N=8 eyes), the “Percentage of eyes with clinical score 3” value came to 25%. In addition, the “Percentage of eyes with clinical score 0” value in series [1] (−5 min, N=8 eyes) was determined as 75%; in series [1] (−180 min (basal), N=8 eyes), 100%. The “Clinical Score −180 min” value in series [1] (−180 min (basal), single eyes) turned out to be 0. Moreover, the “Intraocular Pressure in Untreated Left Eyes (A.M. Readings), MEAN” value in series [2] (Day 3) was determined as 24.3 mmHg; in series [2] (Day 5), 24.3 mmHg; in series [2] (Day 10), 26.9 mmHg; in series [2] (Day 12) it was 26.2 mmHg; in series [2] (Day 16) it was 25.0 mmHg; in series [2] (Day 18), 24.2 mmHg. Besides, the “Intraocular Pressure in Untreated Left Eyes (A.M. Readings), MEAN” value came to 25.0 mmHg in series [2] (Day 22); 23.6 mmHg in series [2] (Day 24); 23.7 mmHg in series [2] (Day 26); 24.0 mmHg in series [2] (Day 30); 25.5 mmHg in series [2] (Day 32); 24.4 mmHg in series [2] (Pre-Study).

(Values after patent US20080058373A1, “Compositions and Methods for Treating or Preventing Glaucoma or Progression Thereof” (priority 2006, published 2008).)
